Where “and” joins values, the source holds several entries; their conditions need not be identical. Identical values can stand only once. Like-named read-outs stand apart in the source and are kept apart here.

The values below come from patent US9751919B2, “Antimicrobial compositions comprising a hyaluronic acid binding peptide and a β-lactam antibiotic” (priority 2012, dated 2017).

One test relates to E. coli. The test is described as follows: MIC (CLSI broth dilution), agent alone. The following applies: for MIC: agent alone. The format is cell-based, Escherichia coli. The procedure, abridged:
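E. coli strain 69717 was tested by CLSI 2005 broth macrodilution in cation-adjusted Mueller-Hinton broth with doubling dilutions. The inoculum was about 5×10^5 CFU/ml, incubated 24 h in ambient air. MIC is the lowest concentration preventing visible growth.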
(In broth dilution the organism is exposed to a series of concentrations in liquid medium.)

Another test has as its system K. oxytoca. The test is described as follows: Checkerboard assay (FIC index). Format: cell-based, Klebsiella oxytoca. As to conditions: antibiotic combined with PEP35. The procedure: (§1) The checkerboard assays were carried out as described by Eliopoulos and Moellering (Chapter 9) in Antibiotic in Laboratory Medicine, Lorian Ed. 1996 as well as Bonapace et al. Diagnostic Microbiology and Infectious Diseases 2002; 44:363-366 and Bonapace et al. Diagnostic Microbiology and Infectious Diseases 2000; 38:43-50. In brief, checkerboard assays were performed in 96 well microtitre trays using an 8-by-8 well configuration. […] 96-well custom designed microtitre plates contained 100 ul/well of cation adjusted Mueller-Hinton broth (eg. for Enterobacteriaceae) with or without lysed horse blood (2-5% V/V) [eg. for S. pneumoniae] and were inoculated to achieve a final concentration of approximately 5×10^5 CFU/ml and incubated in ambient air for 24 hours prior to reading. Colony counts were performed periodically to confirm inocula. Quality control was performed every two weeks using a variety of ATCC QC organisms including; S. pneumoniae 49619, S. aureus 29213, E. faecalis 29212, E. coli 25922 and P. aeruginosa 27853. For all antimicrobials as well as PEP35, CLSI criteria was used.
(§2) The fractional inhibitory concentration index (FIC index) was used to interpret synergy, antagonism or additivity/indifference. FIC index=FIC of drug A+FIC of drug B where:
(§3) The FIC of drug A and drug B is calculated as follows, FIC drug A=MIC of drug A in combination/MIC of drug A alone and FIC of drug B=MIC of drug B in combination/MIC of drug B alone. Synergy is defined as FIC index ≦0.5, additivity/indifference FIC >0.5-4 and antagonism FIC index >4.
(§4) Antimicrobials used included PEP35, cefazolin, ceftriaxone, vancomycin, linezolid, tigecycline and daptomycin versus Gram-positive cocci and PEP35, gentamicin, levofloxacin, piperacillin/tazobactam, meropenem and colistin (Polymyxin E) versus Gram-negative bacilli. These agents were obtained as laboratory grade powders from their respective manufacturers. Stock solutions were prepared and dilutions made as described by the Clinical Laboratory Standards Institute (2005 CLSI).
(§5) Organisms included Gram-positive cocci (2 strains of each): Methicillin-susceptible Staphylococcus aureus (MSSA), community-associated (CA) and healthcare-associated (HA) methicillin-resistant Staphylococcus aureus (MRSA), vancomycin-intermediate Staphylococcus aureus (VISA), vancomycin-resistant Staphylococcus aureus (VRSA), methicillin-resistant Staphylococcus epidermidis (MRSE), Streptococcus pyogenes, Streptococcus agalactiae, Streptococcus pneumoniae, Enterococcus faecalis, Enterococcus faecium and vancomycin-resistant enterococcus (VRE). Gram-negative bacilli tested (2 strains of each) included: E. coli, Pseudomonas aeruginosa, Klebsiella pneumoniae, K. oxytoca, Enterobacter cloacae, P. mirabilis and Stenotrophomonas maltophilia. MIC testing, following two subcultures from frozen stock were determined by the CLSI 2005 approved broth microdilution method.

The test system of a further test is E. cloacae. The test is described as follows: Checkerboard assay (FIC index). Format: cell-based, Enterobacter cloacae. As to conditions: antibiotic combined with PEP35. The procedure:
as §1, §2, §3, §4, §5

For another test, the system named is K. pneumoniae. In words: Checkerboard assay (FIC index). As to conditions: antibiotic combined with PEP35. Format: cell-based, Klebsiella pneumoniae. The procedure: as §1, §2, §3, §4, §5
Another test deals with S. maltophilia. The test is described as follows: Checkerboard assay (FIC index). Format: cell-based, Stenotrophomonas maltophilia. The following applies: antibiotic combined with PEP35. The procedure: as §1, §2, §3, §4, §5

As for `Cc1nnc(SCC2=C(C(=O)O)N3C(=O)[C@@H](NC(=O)Cn4cnnn4)[C@H]3SC2)s1` [Cefazolin], the MIC in the test with E. coli (E. coli 69716, in µg/mL) amounted to 2; in the test on E. coli (E. coli 70752, in µg/mL), 128; in the test with E. coli (Escherichia coli, E. coli control, read-out: MIC) it was 2 µg/mL. Moreover, in the test with E. coli (E. coli, antibiotic alone, two values in cell), the “Cefazolin (MIC)” value is listed as 2/2.
For `C[C@@H](O)[C@H]1C(=O)N2C(C(=O)O)=C(S[C@@H]3CN[C@H](C(=O)N(C)C)C3)[C@H](C)[C@H]12` [Meropenem], the “Avg ΣFIC (range)” value in the test with K. oxytoca (K. oxytoca 75316) is recorded as 1.1 (1.0-1.25); in the test on K. oxytoca (K. oxytoca 76874), 0.80 (0.53-1.12); in the test on E. cloacae (E. cloacae 80194), 1.32 (1.03-2.12); in the test with E. cloacae (E. cloacae 83128) it was 1.05 (0.75-1.25); with K. pneumoniae (K. pneumoniae 70508), 1.19 (1.03-1.5); with K. pneumoniae (K. pneumoniae 77081), 1.21 (1.03-1.5). In addition, the “Avg ΣFIC (range)” value in the test with S. maltophilia (S. maltophilia 73062) is recorded as 0.77 (0.5-1.03); in the test on S. maltophilia (S. maltophilia 77424) it was 1.05 (0.75-1.25). In addition, the MIC with E. coli (E. coli 69716, in µg/mL) turned out to be 0.03; in the test with E. coli (E. coli 70752, in µg/mL) it was 0.03.
As to “KKKKKLQLQLNLIKKKVQVSVVVVRRH (Reordered human peptide sequence) [Scrambled PEP35]”, the MIC in the test on E. coli (E. coli 69716, in µg/mL) turned out to be 8; in the test with E. coli (E. coli 70752, in µg/mL) it was 8. Besides, the “activity (in words)” value in the test with E. coli (vs E. coli) is “active”.
“LKQKIKHVVKLKVVVKLRSQLVKRKQN (listed as Mus sp.) [PEP35]”: the MIC in the test with E. coli (E. coli 69716, in µg/mL) turned out to be 128; with E. coli (E. coli 70752, in µg/mL) it was 128; in the test on E. coli (E. coli control) it was 64 µg/mL. Besides, the “PEP35 (MIC)” value in the test with E. coli (E. coli, peptide alone) amounted to 64 µg/mL.
Consider piperacillin/tazobactam, for which the “Avg ΣFIC (range)” value with K. oxytoca (K. oxytoca 75316) is 0.93 (0.62-1.12); with K. oxytoca (K. oxytoca 76874) it was 0.83 (0.53-1.12); in the test with E. cloacae (E. cloacae 80194) it was 0.79 (0.5-1.06); with E. cloacae (E. cloacae 83128), 0.71 (0.37-1.06); with K. pneumoniae (K. pneumoniae 70508) it was 0.93 (0.62-1.12); in the test on K. pneumoniae (K. pneumoniae 77081), 1.05 (0.75-1.25). Besides, the “Avg ΣFIC (range)” value with S. maltophilia (S. maltophilia 73062) is reported as 0.98 (0.62-1.25); in the test on S. maltophilia (S. maltophilia 77424) it was 1.04 (0.75-1.25). The MIC in the test on E. coli (E. coli 69716, in µg/mL) is 2; in the test on E. coli (E. coli 69716, listed as Piperacillin-Tazobactam, in µg/mL), 4 and 2; with E. coli (E. coli 70752), 4/4; in the test with E. coli (E. coli 70752, in µg/mL) it was 8.
